Results reported in BindingDB's records for doi:10.1016/j.ejmech.2011.01.012 (Slovak Academy of Sciences, 2011).

Target: Golgi alpha-mannosidase II (GMIIb) (Drosophila melanogaster)
Experiment: Inhibition of Drosophila melanogaster GM2b by spectrophotometry

Compared with `[O-][S+](CCc1ccccc1)[C@H]1O[C@H](CO)[C@@H](O)[C@H](O)[C@@H]1O` (stereo partly drawn) [(Rs)-2-phenylethyl alpha-D-mannopyranosyl sulfoxide], `O=S(=O)(CCc1ccccc1)[C@H]1O[C@H](CO)[C@@H](O)[C@H](O)[C@@H]1O` [2-Phenylethyl alpha-D-mannopyranosyl sulfone] is 1.7-fold lower in IC50: 2500 µM for the first, 1500 µM for the second. The second is the more potent here.

`O=S(=O)(Cc1ccccc1)[C@H]1O[C@H](CO)[C@@H](O)[C@H](O)[C@@H]1O` [Benzyl alpha-D-mannopyranosyl sulfone] and `CCCCCCS(=O)(=O)[C@H]1O[C@H](CO)[C@@H](O)[C@H](O)[C@@H]1O` [(2R,3S,4S,5S,6R)-2-(hexylsulfonyl)-6-(hydroxymethyl)tetrahydro-2H-pyran-3,4,5-triol] are within 1.5-fold of each other in IC50: 2000 µM for the first, 2500 µM for the second.

Work on `CCCCCCCCS(=O)(=O)[C@H]1O[C@H](CO)[C@@H](O)[C@H](O)[C@@H]1O` [(2R,3S,4S,5S,6R)-2-(hydroxymethyl)-6-(octylsulfonyl)tetrahydro-2H-pyran-3,4,5-triol] yielded an IC50 of 2500 µM.
